Experiments:
[1] = Effect on tissue-toxic hypoxia (survival time after KCN i.p.), life-prolonging rate (1); format: in vivo, male mice (dd-strain); conditions: Mus musculus, po, 100 mg/kg oral, 1 hour before KCN 10 mg/kg i.p.; untreated group 140 seconds; read-out: Life-prolonging rate (1): increase percent of survival time
[2] = Effect on hypotonic hypoxia (survival time in nitrogen gas containing 1.5 % oxygen), life-prolonging rate (2); format: in vivo, male mice (dd-strain); conditions: Mus musculus, po, 100 mg/kg oral, 1 hour before 1.5 % oxygen in nitrogen; untreated group 8 minutes; read-out: Life-prolonging rate (2): increase percent of survival time
Protocol: b. Effect on hyptonic hypoxia
To male mice (dd-strain) weighting 15 to 22 g were administered orally the present compounds in the dosage of 100 mg/kg, and after one hour, the mice were taken to a closed room, air in which was substituted with nitrogen gas containing 1.5 % oxygen by ventilating the nitrogen gas for 2 minutes. As sending a mixed gas into the room, the time for death was measured. The increase percent of survival time to the average survival time (8 minutes) of the group, to which the present compounds were not administered, is shown in Table II as life-prolonging rate (2).

Compound	ILS at 100 mg/kg [1] [%]	ILS at 100 mg/kg [2] [%]
CC(O)CNC(=S)Nc1cccnc1 (stereo not shown)	75	60
S=C(NN=Cc1cccnc1)Nc1cccnc1	135	114
CN(Cc1ccccc1)NC(=S)Nc1ccncc1	156	58
S=C(NCCSCc1ccccc1)Nc1cccnc1	64	55
OCCNC(=S)Nc1ccncc1	242	158
CN(C)CCCNC(=S)Nc1cccnc1	35	10
CCN(CC)CCNC(=S)Nc1ccccn1	20	16
O=C(O)CCCNC(=S)Nc1cccnc1	127	78
CCN(CC)CCNC(=S)Nc1cccnc1	89	40
CCN(CC)CCCNC(=S)Nc1cccnc1	28	11
CN(C)CCCNC(=S)Nc1ccncc1	37	21
S=C(NNc1ccccc1)Nc1cccnc1	125	108
OCC(CO)(CO)NC(=S)Nc1cccnc1	61	59
CN(C)NC(=S)Nc1cccnc1	81	63
S=C(NCCSCc1ccccc1)Nc1ccccn1	86	65
OCCCNC(=S)Nc1cccnc1	115	100
CN(C)CCNC(=S)Nc1cccnc1	61	46
O=C(O)CCCNC(=S)Nc1ccccn1	72	53
S=C(NCCSSCCNC(=S)Nc1cccnc1)Nc1cccnc1	30	5
S=C(NN=Cc1ccccn1)Nc1cccnc1	92	81
S=C(Nc1cccnc1)NN1CCN(Cc2ccccc2)CC1	124	80
COCCCNC(=S)Nc1cccnc1	35	25
CC(C)(CO)NC(=S)Nc1cccnc1	67	50
